Data taken from patent US11046710B2, “Sulfonamide compounds” (DAIICHI SANKYO COMPANY, LIMITED, priority 2016, dated 2021).

System: plasma ALP (80-90% containing TNAP)
Test: Inhibitory test of plasma TNAP activity in B6 mouse
Type: in vivo
Conditions: oral, dose 1 mg/kg, average 0-6 h after administration
Description: After blood sampling from the tail vein using a heparin-treated hematocrit capillary tube (EM Meister Hematocrit Capillary Tube, AS ONE Corp.) (as the sample before compound administration), each test compound suspended in a 0.5% methylcellulose solution (powder purchased from Wako Pure Chemical Industries, Ltd. was adjusted to 0.5% with Otsuka distilled water) was administered orally to the mouse. 1, 2, 4, 6, and 24 hours after the administration, blood was collected from the tail vein using a heparin-treated hematocrit capillary tube to obtain a plasma sample. The plasma sample was added to an assay buffer (1 M Tris, 1 M MgCl2, 20 mM ZnCl2, and water, pH 7.5), and the mixture was left standing for 5 minutes. Then, the absorbance at 405 nm was measured and used as a blank. The substrate pNPP was added to the plasma sample and incubated at room temperature for 180 minutes. Then, the absorbance (ABS: 405 nm) was measured using a microplate reader (model plus 384, Molecular Devices, LLC), and the concentration of produced p-nitrophenol was calculated. The blank was subtracted from all measurement values to calculate TNAP activity at each time point with the TNAP activity of the sample before compound administration defined as 100%. The pharmaceutical effect of the test compound was evaluated by the average inhibition of plasma ALP (80-90% containing TNAP) activity for 6 hours from 0 hour to 6 hour after the administration of the test compound. It was calculated according to the following expression: 100−((plasma ALP activity at 0 hr+plasma ALP activity at 1 hr)*½+(plasma ALP activity at 1 hr+plasma ALP activity at 2 hr)*½+(plasma ALP activity at 2 hr+plasma ALP activity at 4 hr)*2/2+(plasma ALP activity at 4 hr+plasma ALP activity at 6 hr)*2/2)/6 The results are shown in Table 2.

## CNC(=O)O[C@H]1C[C@@H]2COc3ncc([N-]S(=O)(=O)c4cc(Cl)ccc4OC)cc3C(=O)N2C1.[K+] [Example 49, Potassium [(5-chloro-2-methoxyphenyl)sulfonyl]{(8S,9aR)-8-[(methylcarbamoyl)oxy]-5-oxo-8,9,9a,10-tetrahydro-5H,7H-pyrido[3,2-f]pyrrolo[2,1-c][1,4]oxazepin-3-yl}azanide]
  Plasma ALP inhibition (6 h ave. inhibition %): 52.8%
